In PMC9841397 (2023):

Tested on: CMP-D-C3 (C3, ΔP1a) (RNA, riboswitch) GGAGCGUUACGUCCGCCCACGGCUCUUUAAAAACAAAAGGA
Experiment: ITC
Conditions: 100 mM K+, 20 mM Mg2+; 50 mM K-MOPS pH 7.5, 25 °C

- Kd: 18.3 ± 1.2 µM
SMILES: NC(=O)c1ccc[n+]([C@@H]2O[C@H](COP(=O)(O)O)[C@@H](O)[C@H]2O)c1
